Legend:
Type in all cases: biochemical
CDK16 (WT-GST-CDK16) [1] = biological target: T1, CDK16 (WT-GST-CDK16) (Homo sapiens, UniProt Q00536); test: in vitro kinase assay with [γ-32P]-ATP, dose response
T1 construct: N-terminal GST fusion, full-length, purified from E. coli; with CCNY

[2] = biological target: T2, CDK16 (analog-sensitive, AS-GST-CDK16) (Homo sapiens, UniProt Q00536, F240G); test: as above
T2 construct: N-terminal GST fusion, full-length, purified from E. coli; with CCNY

CDK16 (WT-GST-CDK16) [3] = biological target: T1, CDK16 (WT-GST-CDK16); test: in vitro kinase assay, thiophosphate transfer to CCNY

T1 sequence (Q00536 whole entry, the tested form may be a part): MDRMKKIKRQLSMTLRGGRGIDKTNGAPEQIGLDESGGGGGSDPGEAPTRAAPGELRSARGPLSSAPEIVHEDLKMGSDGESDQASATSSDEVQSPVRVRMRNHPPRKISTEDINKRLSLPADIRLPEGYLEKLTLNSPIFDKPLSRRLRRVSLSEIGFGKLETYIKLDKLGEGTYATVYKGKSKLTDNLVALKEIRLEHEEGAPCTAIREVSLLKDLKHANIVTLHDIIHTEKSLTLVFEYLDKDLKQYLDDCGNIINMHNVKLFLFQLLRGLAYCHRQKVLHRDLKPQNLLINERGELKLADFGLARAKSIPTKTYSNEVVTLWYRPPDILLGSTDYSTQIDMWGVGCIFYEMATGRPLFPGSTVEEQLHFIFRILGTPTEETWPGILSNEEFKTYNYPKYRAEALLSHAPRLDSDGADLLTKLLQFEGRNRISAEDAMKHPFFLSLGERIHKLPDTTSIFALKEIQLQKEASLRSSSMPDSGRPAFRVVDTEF
T1 sequence (Q8ND76 2-341 partner): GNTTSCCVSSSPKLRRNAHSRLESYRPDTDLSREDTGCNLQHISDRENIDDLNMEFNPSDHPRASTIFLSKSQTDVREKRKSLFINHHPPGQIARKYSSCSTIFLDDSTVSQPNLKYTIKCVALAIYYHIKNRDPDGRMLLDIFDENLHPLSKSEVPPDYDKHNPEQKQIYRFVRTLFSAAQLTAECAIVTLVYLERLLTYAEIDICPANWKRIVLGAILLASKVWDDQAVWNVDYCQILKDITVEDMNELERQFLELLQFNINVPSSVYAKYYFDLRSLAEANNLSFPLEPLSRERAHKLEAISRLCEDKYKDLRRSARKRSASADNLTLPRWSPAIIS
T2 sequence (Q00536 whole entry F240G, the tested form may be a part): as the sequence (Q00536 whole entry, the tested form may be a part) above, with F240G counted along it
T2 sequence (Q8ND76 2-341 partner): as the sequence (Q8ND76 2-341 partner) above

Cc1cccc(Cc2nn(C(C)(C)C)c3ncnc(N)c23)c1 [3MBPP1, 1-(tert-butyl)-3-(3-methylbenzyl)-1H-pyrazolo[3,4-d]pyrimidin-4-amine]
IC50 (CDK16 (WT-GST-CDK16) [1]): 4.4 µM
IC50 [2]: 1230 nM

Nc1ncnc2c1ncn2[C@@H]1O[C@H](CO[P@](=O)(O)O[P@](=O)(O)O[P@@](=O)(O)S)[C@@H](O)[C@H]1O [ATPγS]
in vitro kinase assay, thiophosphate transfer to CCNY (CDK16 (WT-GST-CDK16) [3]): WT-CDK16 used ATPγS to phosphorylate GST-CCNY, it could not use the N^6-modified bulky forms
